Source: article PMC8621570, “Mechanistic Studies of Antibiotic Adjuvants Reducing Kidney’s Bacterial Loads upon Systemic Monotherapy” (Pharmaceutics, 2021)
≈ marks a conversion by molar mass, not a printed value. Read-outs that look alike come from different tables or passages of the source. Where a SMILES comes first, the peptide text is derived from it. [ ]: non-standard residue; d: D form. The star is where a group is joined. Myristoyl = CCCCCCCCCCCCCC(=O)*; 12Ado = NCCCCCCCCCCCC(=O)O; Orn = NCCC[C@H](N)C(=O)O

Key:
[1] = system: Acinetobacter baumannii 19606; experiment: Sensitization to rifampin, checkerboard method; assay type: cell-based; conditions: Acinetobacter baumannii, 19606, A. baumannii, LB
Protocol: (§1) Bacterial sensitization: Sensitization to antibiotics was determined using the checkerboard method in presence of sub-MIC OAC (2.5, 5, and 10 μM), as described. The synergistic effect of the combinations was expressed in terms of the Sensitization Factor (SF), where SF = (MIC antibiotic alone)/(MIC antibiotic upon combination). Data were obtained from three independent assays performed in duplicate.
(§2) Figure 4 Hydrophobicity dependence of antibiotics potentiation by lipopeptide analogs. Sensitization of GNB to rifampin and erythromycin (upper and lower panel, respectively) was assessed by MIC experiments performed in LB medium, in presence or absence of an OAC analog whose A2 position was gradually shortened (from c10 to c6). Pseudomonas aeruginosa 27853 (Pa, blue), Klebsiella pneumoniae 1287 (Kp, green), Escherichia coli 25922 (Ec, red), and Acinetobacter baumannii 19606 (Ab, black).

Escherichia coli 25922 = experiment: Sensitization to rifampin, checkerboard method; assay type: cell-based; conditions: Escherichia coli, 25922, E. coli, LB
Protocol: as §1, §2

Klebsiella pneumoniae = experiment: Sensitization to rifampin, checkerboard method; assay type: cell-based; conditions: Klebsiella pneumoniae, K. pneumoniae, LB
Protocol: as §1, §2

[2] = system: Pseudomonas aeruginosa 27853; experiment: Sensitization to rifampin, checkerboard method; assay type: cell-based; conditions: Pseudomonas aeruginosa, 27853, P. aeruginosa, LB
Protocol: as §1, §2

P. aeruginosa 27853 = experiment: Excisional skin wound infection model, topical treatment; assay type: in vivo, mouse; conditions: hypromellose gel 1% (w/v), 4 h treatment, mice n = 3 per group
Protocol: Animals: All animal studies were performed using male ICR mice (25 ± 2 gr). The Technion Animal Care and Use committee approved all procedures, care, and handling of animals. Ethics approval codes: IL0800519, IL0640421, IL0550618, IL1811217.
For efficacy assessments, three infection models were used including one with topical treatment and two with systemic treatment. • Excisional skin wound infection model: mice were anesthetized by intraperitoneal administration of a mixture of ketamine 100 mg/kg and xylazine 5 mg/kg in PBS and their backs shaved with electric clippers. The following day mice were similarly anesthetized and were administrated (S.C) 0.05 mg/kg buprenorphine (for pain relief). A 5 mm diameter piece of skin was removed from the middle of the shaved back, with sterile biopsy punch resulting in a full-thickness injury. A total of 20 µL of a mid-logarithmic culture, containing 5 × 10^6 CFU P. aeruginosa 27853 were applied on the wound. Then, 15 min after inoculation, about 50 µL of hypromellose gel (prepared as described) containing OAC, antibiotic, or their combination were applied on the skin and covered with a piece of medical tape. As a control, the vehicle (drug-free gel) was similarly applied on the skin. After a treatment period of 4 h, about 8 mm diameter of skin surrounding the infected area was removed, suspended in PBS, homogenized, serially diluted 10-fold, and plated for CFU enumeration. The number of viable bacteria was determined after overnight incubation at 37 °C. The lower limit of detection was 50 CFU/wound. • Thigh infection model (TI): mice were inoculated intramuscularly with 1 × 10^6 CFU/mouse of mid-logarithmic E. coli 25922 and treated subcutaneously 1 and 3 h after inoculation. Mice were sacrificed 24 h after infection, their thighs excised, homogenized, serially diluted 10-fold, and plated for CFU enumeration. The number of viable bacteria was determined after overnight incubation at 37 °C. […] The number of viable bacteria was determined after overnight incubation at 37 °C. […]

[3] = Hydrophobicity by reversed phase HPLC elution; assay type: physicochemical; conditions: % acetonitrile required for elution in reversed phase HPLC, C18 column; rounded to nearest whole number
[4] = Peptide self-assembly (critical aggregation concentration) by static light scattering; assay type: physicochemical; conditions: light scattering in PBS
Protocol: (§3) Peptide self-assembly was determined by static light scattering measurements as described. Hemolysis was determined by measuring hemoglobin leakage from washed human RBCs, as described. Minimal inhibitory concentration (MIC) was determined using the microdilution assay, as described. Bactericidal kinetics were determined by mixing bacteria with rifampin, OAC, or their combinations, as described. Data were obtained from three independent assays performed in duplicate.

[5] = system: washed human erythrocytes; assay type: cell-based; conditions: red cells of human, 3 h
Protocol: as §3

12 GNB strains [6] = assay type: cell-based; conditions: OD measurements, mean of 12 GNB strains
Protocol: (§4) Bacteria:Escherichia coli strains: 25922 and 35218 (ATCC, Manassas, VA, USA), 14182 (clinical isolate), Ag100 and Ag100A [34] (ΔacrAB) are two K-12 isogenic mutantsand the engineered mutant ML-35p. Additional ESKAPE species tested: Klebsiella pneumoniae strains 1287 and 224 (clinical isolates), Acinetobacter baumannii ATCC strain 19606, Pseudomonas aeruginosa ATCC strains 9027 and 27853. Bacteria were grown in Luria–Bertani (LB) broth (0.5% NaCl, 0.5% yeast extract, 1% tryptone, pH = 7), except for E. coli ML-35p that was grown in tryptic-soy broth.
as §3

E. coli 25922 = assay type: cell-based, Escherichia coli; conditions: 25922, 24 h
Protocol: Sensitization to plasma components was assessed by mixing bacteria with serial two-fold OAC dilutions in 80% human plasma (Israel Blood Bank) or plasma from the specified species (Technion preclinical research authority or VetSource), as described. Data were obtained from three independent experiments.
Figure 3 Animal plasma antibacterial activities against E. coli 25922. (a) Dose-dependent reduction of colony forming units (CFU) as determined 24 h after exposure to C14(ω5)OOc10O in human plasma (80% final plasma concentration in PBS). Values represent the mean ± SD obtained from three individual plasma donors (mean inoculum was 1.6 ± 0.8 × 10^6 CFU/mL). (b) Time-kill kinetics determined upon E. coli exposure to 0, 2.5, 5, and 10 µM C14(ω5)OOc10O (from top to bottom, respectively). Values represent the mean ± SD obtained from two individual plasma samples, each subjected to two independent assays. Panels (c–f), respectively, show the OAC’s concentration-dependent activities in plasma samples obtained from pig, cat, sheep, and dog. The three dashed horizontal lines respectively represent the average CFU count of the vehicle control (upper line), the inoculum (middle line), and the limit of detection (lower line), i.e., log10 50 CFU/mL = 1.69. Green stars (*) denote lack of detectable CFU.

E. coli strain AG100 = experiment: microbe, parasite or virus in culture; assay type: cell-based, Escherichia coli
Protocol: as §4, §3
(§5) The wild-type E. coli strain AG100 and its isogenic ΔacrAB mutant AG100A were used to determine the MIC of OACs and of two known acrAB-TolC substrates: the AMP LL-37 and the macrolide antibiotic erythromycin that are normally inefficient against GNB.

[7] = system: E. coli ΔacrAB mutant AG100A; experiment: microbe, parasite or virus in culture; assay type: cell-based, Escherichia coli
Protocol: as §4, §3, §5

[8] = system: extremely resistant GNB strains; experiment: Erythromycin MIC in LB medium against GNB; assay type: cell-based; conditions: greater than highest tested concentration, read-out: Erythromycin MIC alone
Protocol: as §1, §2

[9] = % acetonitrile required for elution in reversed phase HPLC, C18 column; rounded to nearest whole number; reference peptide; cited from earlier work
Description: Table 1 Biophysical attributes of relevant lipopeptide analogs. | column: H (%)

[10] = light scattering in PBS; reference peptide; cited from earlier work
Description: Table 1 Biophysical attributes of relevant lipopeptide analogs. | column: CAC (µM)

12 GNB strains [11] = conditions: OD measurements, mean of 12 GNB strains, reference peptide; cited from earlier work
Description: Table 1 Biophysical attributes of relevant lipopeptide analogs. | column: MIC (µM) / LB ^a Medium

[12] = no adjuvant, read-out: Rifampin MIC alone
[13] = with C14(ω5)OOc10O, read-out: Rifampin MIC in presence of adjuvant
[14] = with 10 μM C14(ω5)OOc10O, read-out: Rifampin MIC in presence of adjuvant

Row | SMILES | H, hydrophobicity [3] [%] | CAC, critical aggregation concentration [4] [µM] | HC50, concentration causing 50% hemolysis compared to water [5] [µM] | MIC, LB medium (12 GNB strains [6]) [µM] | MIC, human plasma (E. coli 25922) [µM] | further results
1 | CO[C@H]1/C=C/O[C@@]2(C)Oc3c(C)c(O)c4c(O)c(c(/C=N/N5CCN(C)CC5)c(O)c4c3C2=O)NC(=O)/C(C)=C\C=C\[C@H](C)[C@H](O)[C@@H](C)[C@@H](O)[C@@H](C)[C@H](OC(C)=O)[C@@H]1C [rifampin] | – | – | – | – | – | MIC [1, 12]: 2 µg/mL; MIC [1, 13]: 0.0005 µg/mL; MIC (Escherichia coli 25922; [12]): 8 µg/mL; MIC (Escherichia coli 25922; [14]): 0.00025 µg/mL; MIC (Klebsiella pneumoniae; [12]): 32 µg/mL; MIC (Klebsiella pneumoniae; [13]): 0.0005 µg/mL; MIC [2, 12]: 32 µg/mL; MIC [2, 14]: 0.001 µg/mL; Reduction of CFU count (P. aeruginosa 27853): 1.7 log10 units
2 | CCCCCCCCCCCCCC(=O)N[C@@H](CCCN)C(=O)N[C@@H](CCCN)C(=O)NCCCCCCCCCCCC(=O)N[C@@H](CCCN)C(N)=O [C14OOc12O] (Myristoyl-[Orn][Orn][12Ado][Orn]-NH2) | 55 | 15 ± 1 | 14 ± 4 | 3 to 6 | >20 | MIC (E. coli strain AG100; strain AG100): 3.1 µM; MIC, Ag100A ([7]; isogenic ΔacrAB mutant AG100A): 3.1 µM
3 | CC[C@H]1OC(=O)[C@H](C)[C@@H](O[C@H]2C[C@@](C)(OC)[C@@H](O)[C@H](C)O2)[C@H](C)[C@@H](O[C@@H]2O[C@H](C)C[C@H](N(C)C)[C@H]2O)[C@](C)(O)C[C@@H](C)C(=O)[C@H](C)[C@@H](O)[C@]1(C)O [Erythromycin, reference compound] | – | – | – | – | – | MIC (E. coli strain AG100; Escherichia coli, wild-type E. coli AG100): 174 µM; MIC ([7]; Escherichia coli, read-out: MIC, Ag100A): 10.9 µM; MIC [8]: > 512 µg/mL
4 | CCCCC=CCCCCCCCC(=O)N[C@@H](CCCN)C(=O)N[C@@H](CCCN)C(=O)NCCCCCCCC(=O)N[C@@H](CCCN)C(N)=O [C14(ω5)OOc8O] | 48 | >100 | >100 | >50 | 2.5 to 5 | –
5 | CCCCCCCCCCCCCC(=O)N[C@@H](CCCCN)C(=O)N[C@@H](CCCCN)C(=O)NCCCCCCCCCCCC(=O)N[C@@H](CCCCN)C(N)=O [C14KKc12K] (Myristoyl-KK[12Ado]K-NH2) | – | – | 12 ± 1 | – | >20 | H, hydrophobicity [9]: 55%; CAC, critical aggregation concentration [10]: 20 ± 5 µM; MIC, LB medium (12 GNB strains [11]): 3 to 6 µM
6 | CCCCCCCCCCCCCC(=O)N[C@@H](CCCN)C(=O)N[C@@H](CCCN)C(=O)NCCCCCCCCCC(=O)N[C@@H](CCCN)C(N)=O [C14OOc10O] | 53 | 45 ± 14 | 28 ± 2 | 12.5 to 25 | 10 to 20 | –
7 | CCCCC=CCCCCCCCC(=O)N[C@@H](CCCN)C(=O)N[C@@H](CCCN)C(=O)NCCCCCC(=O)N[C@@H](CCCN)C(N)=O [C14(ω5)OOc6O] | 47 | >100 | >100 | >50 | 5 (≈ 3.4 µg/mL) | –
8 | NCCC[C@H](NC(=O)CCCCCCCCCCCNC(=O)[C@H](CCCN)NC(=O)[C@@H](N)CCCN)C(N)=O [OOc12O] (H-[Orn][Orn][12Ado][Orn]-NH2) | 24 | >100 | >100 | >50 | >20 | –
